Source: the NIST ThermoML archive (doi:10.1016/j.jct.2016.05.017)
Values joined by “and” are separate entries in the source; they are usually repeats but may differ in a detail not shown here. Equal values may be shown once. ± gives the expanded uncertainty stated by the source.

How the values were obtained:
[1] = Molar enthalpy of transition or fusion; details: Crystal; DSC
[2] = for vapor or sublimation pressure: Transpiration method; for Triple point temperature: DSC

CC(=O)C12CC3CC(CC(C3)C1)C2 [1-adamantyl methyl ketone]
Molar enthalpy of transition or fusion [1]: 4.66 ± 0.167 kcal/mol | vapor or sublimation pressure ([2]; 291.6 K, Crystal): 0.00076 ± 5e-05 kPa | vapor or sublimation pressure ([2]; 293.7 K, Crystal): 0.00099 ± 7e-05 kPa | vapor or sublimation pressure ([2]; 296.5 K, Crystal): 0.00136 ± 0.0001 kPa | vapor or sublimation pressure ([2]; 298.4 K, Crystal): 0.00174 ± 0.00013 kPa | vapor or sublimation pressure ([2]; 303.3 K, Crystal): 0.00299 ± 0.0002 kPa | vapor or sublimation pressure ([2]; 308.2 K, Crystal): 0.00505 ± 0.00033 kPa | vapor or sublimation pressure ([2]; 308.4 K, Crystal): 0.00506 ± 0.00033 kPa | vapor or sublimation pressure ([2]; 313.2 K, Crystal): 0.0085 ± 0.00059 kPa | vapor or sublimation pressure ([2]; 316.2 K, Crystal): 0.01174 ± 0.00079 kPa | vapor or sublimation pressure ([2]; 318.2 K, Crystal): 0.01406 ± 0.00094 kPa | vapor or sublimation pressure ([2]; 318.7 K, Crystal): 0.01511 ± 0.001 kPa | vapor or sublimation pressure ([2]; 320.3 K, Crystal): 0.01713 ± 0.0011 kPa | vapor or sublimation pressure ([2]; 323.3 K, Crystal): 0.02368 ± 0.0016 kPa | vapor or sublimation pressure ([2]; 331.3 K, Liquid): 0.0399 ± 0.0025 kPa and 0.0404 ± 0.0025 kPa | vapor or sublimation pressure ([2]; 333.2 K, Liquid): 0.04637 ± 0.003 kPa and 0.0468 ± 0.003 kPa | vapor or sublimation pressure ([2]; 335.2 K, Liquid): 0.0516 ± 0.0032 kPa | vapor or sublimation pressure ([2]; 338.2 K, Liquid): 0.0633 ± 0.004 kPa | vapor or sublimation pressure ([2]; 341.2 K, Liquid): 0.0767 ± 0.0048 kPa | vapor or sublimation pressure ([2]; 343.1 K, Liquid): 0.08701 ± 0.0055 kPa | vapor or sublimation pressure ([2]; 346.2 K, Liquid): 0.1025 ± 0.0065 kPa | vapor or sublimation pressure ([2]; 348.1 K, Liquid): 0.1221 ± 0.0077 kPa | vapor or sublimation pressure ([2]; 348.3 K, Liquid): 0.1231 ± 0.0077 kPa | vapor or sublimation pressure ([2]; 351.7 K, Liquid): 0.1433 ± 0.0097 kPa | vapor or sublimation pressure ([2]; 352.1 K, Liquid): 0.1514 ± 0.0095 kPa | vapor or sublimation pressure ([2]; 353.1 K, Liquid): 0.1567 ± 0.0098 kPa | vapor or sublimation pressure ([2]; 355.5 K, Liquid): 0.1853 ± 0.012 kPa | vapor or sublimation pressure ([2]; 356 K, Liquid): 0.1912 ± 0.012 kPa | vapor or sublimation pressure ([2]; 358.1 K, Liquid): 0.2111 ± 0.013 kPa | vapor or sublimation pressure ([2]; 358.2 K, Liquid): 0.2186 ± 0.014 kPa | vapor or sublimation pressure ([2]; 360.4 K, Liquid): 0.2451 ± 0.015 kPa | vapor or sublimation pressure ([2]; 363.1 K, Liquid): 0.2835 ± 0.018 kPa | Triple point temperature ([2]; Crystal): 325.2 ± 1.2 K

O=C1C2CC3CC(C2)CC1C3 [2-adamantanone]
vapor or sublimation pressure ([2]; 293.5 K, Crystal): 0.00109 ± 8e-05 kPa | vapor or sublimation pressure ([2]; 296.4 K, Crystal): 0.00142 ± 0.0001 kPa | vapor or sublimation pressure ([2]; 297.4 K, Crystal): 0.00156 ± 0.0001 kPa | vapor or sublimation pressure ([2]; 298.5 K, Crystal): 0.00172 ± 0.00012 kPa | vapor or sublimation pressure ([2]; 300.4 K, Crystal): 0.00199 ± 0.00013 kPa | vapor or sublimation pressure ([2]; 303.4 K, Crystal): 0.00258 ± 0.00017 kPa | vapor or sublimation pressure ([2]; 306.4 K, Crystal): 0.00341 ± 0.00023 kPa | vapor or sublimation pressure ([2]; 308.4 K, Crystal): 0.00417 ± 0.00028 kPa | vapor or sublimation pressure ([2]; 313.4 K, Crystal): 0.00608 ± 0.00043 kPa | vapor or sublimation pressure ([2]; 318.4 K, Crystal): 0.00903 ± 0.00061 kPa | vapor or sublimation pressure ([2]; 323.4 K, Crystal): 0.01275 ± 0.00084 kPa | vapor or sublimation pressure ([2]; 328.4 K, Crystal): 0.01873 ± 0.0012 kPa | vapor or sublimation pressure ([2]; 333.4 K, Crystal): 0.02597 ± 0.0017 kPa | vapor or sublimation pressure ([2]; 338.5 K, Crystal): 0.03782 ± 0.0024 kPa | vapor or sublimation pressure ([2]; 343.3 K, Crystal): 0.05432 ± 0.0034 kPa | vapor or sublimation pressure ([2]; 348.4 K, Crystal): 0.07513 ± 0.0047 kPa | vapor or sublimation pressure ([2]; 353.3 K, Crystal): 0.09857 ± 0.0062 kPa | vapor or sublimation pressure ([2]; 358.3 K, Crystal): 0.1302 ± 0.0082 kPa | vapor or sublimation pressure ([2]; 363.4 K, Crystal): 0.1815 ± 0.011 kPa | vapor or sublimation pressure ([2]; 368.4 K, Crystal): 0.2462 ± 0.015 kPa | vapor or sublimation pressure ([2]; 373.4 K, Crystal): 0.3099 ± 0.019 kPa

O=C(O)C1C2CC3CC(C2)CC1C3 (stereo not given) [adamantane-2-carboxylic acid]
Molar enthalpy of transition or fusion [1]: 2.34 ± 0.239 kcal/mol | vapor or sublimation pressure ([2]; 344.3 K, Crystal): 0.00066 ± 5e-05 kPa | vapor or sublimation pressure ([2]; 347.3 K, Crystal): 0.00087 ± 7e-05 kPa | vapor or sublimation pressure ([2]; 350.3 K, Crystal): 0.00113 ± 8e-05 kPa | vapor or sublimation pressure ([2]; 353.4 K, Crystal): 0.00157 ± 0.0001 kPa | vapor or sublimation pressure ([2]; 355.4 K, Crystal): 0.0018 ± 0.00012 kPa | vapor or sublimation pressure ([2]; 356.4 K, Crystal): 0.00212 ± 0.00015 kPa | vapor or sublimation pressure ([2]; 358.4 K, Crystal): 0.00246 ± 0.00017 kPa | vapor or sublimation pressure ([2]; 360.4 K, Crystal): 0.00307 ± 0.0002 kPa | vapor or sublimation pressure ([2]; 362.4 K, Crystal): 0.00345 ± 0.00023 kPa | vapor or sublimation pressure ([2]; 364.4 K, Crystal): 0.00436 ± 0.00028 kPa | vapor or sublimation pressure ([2]; 365.8 K, Crystal): 0.0048 ± 0.00032 kPa | vapor or sublimation pressure ([2]; 368.3 K, Crystal): 0.00577 ± 0.0004 kPa | vapor or sublimation pressure ([2]; 368.4 K, Crystal): 0.00595 ± 0.00041 kPa | vapor or sublimation pressure ([2]; 369.4 K, Crystal): 0.00628 ± 0.00044 kPa | vapor or sublimation pressure ([2]; 370.4 K, Crystal): 0.00725 ± 0.00051 kPa | vapor or sublimation pressure ([2]; 371.4 K, Crystal): 0.00757 ± 0.00052 kPa | vapor or sublimation pressure ([2]; 373.4 K, Crystal): 0.00923 ± 0.00063 kPa | vapor or sublimation pressure ([2]; 374.4 K, Crystal): 0.00992 ± 0.00067 kPa | vapor or sublimation pressure ([2]; 376.4 K, Crystal): 0.01193 ± 0.00079 kPa | vapor or sublimation pressure ([2]; 377.4 K, Crystal): 0.01257 ± 0.00083 kPa and 0.01301 ± 0.00086 kPa | vapor or sublimation pressure ([2]; 378.4 K, Crystal): 0.01382 ± 0.00091 kPa | vapor or sublimation pressure ([2]; 380.3 K, Crystal): 0.01584 ± 0.001 kPa | vapor or sublimation pressure ([2]; 381.3 K, Crystal): 0.01701 ± 0.0011 kPa | vapor or sublimation pressure ([2]; 383.4 K, Crystal): 0.02003 ± 0.0013 kPa | vapor or sublimation pressure ([2]; 386.4 K, Crystal): 0.02497 ± 0.0016 kPa | Triple point temperature ([2]; Crystal): 416.3 ± 1.2 K

O=C(O)C12CC3CC(CC(C3)C1)C2 [tricyclo[3.3.1.1(3,7)]decane-1-carboxylic acid]
Molar enthalpy of transition or fusion [1]: 4.21 ± 0.167 kcal/mol | vapor or sublimation pressure ([2]; 345.2 K, Crystal): 0.0009 ± 7e-05 kPa | vapor or sublimation pressure ([2]; 348.2 K, Crystal): 0.00122 ± 9e-05 kPa | vapor or sublimation pressure ([2]; 353.2 K, Crystal): 0.00193 ± 0.00013 kPa | vapor or sublimation pressure ([2]; 356.7 K, Crystal): 0.00266 ± 0.00018 kPa | vapor or sublimation pressure ([2]; 360.2 K, Crystal): 0.00382 ± 0.00025 kPa | vapor or sublimation pressure ([2]; 362.2 K, Crystal): 0.00453 ± 0.0003 kPa | vapor or sublimation pressure ([2]; 365.2 K, Crystal): 0.00575 ± 0.00037 kPa | vapor or sublimation pressure ([2]; 367.7 K, Crystal): 0.00692 ± 0.00049 kPa | vapor or sublimation pressure ([2]; 370.2 K, Crystal): 0.00896 ± 0.00061 kPa | vapor or sublimation pressure ([2]; 370.3 K, Crystal): 0.00895 ± 0.00061 kPa | vapor or sublimation pressure ([2]; 373.2 K, Crystal): 0.01102 ± 0.00073 kPa | vapor or sublimation pressure ([2]; 375.2 K, Crystal): 0.01263 ± 0.00084 kPa | vapor or sublimation pressure ([2]; 377.3 K, Crystal): 0.01524 ± 0.001 kPa | vapor or sublimation pressure ([2]; 377.7 K, Crystal): 0.01587 ± 0.0011 kPa | vapor or sublimation pressure ([2]; 380.2 K, Crystal): 0.01902 ± 0.0013 kPa | vapor or sublimation pressure ([2]; 382.2 K, Crystal): 0.02303 ± 0.0015 kPa | vapor or sublimation pressure ([2]; 385.3 K, Crystal): 0.02961 ± 0.0019 kPa | Triple point temperature ([2]; Crystal): 449.1 ± 1.2 K
